The source of these data is US20250152559A1, “METHODS FOR TREATING MYC-AMPLIFIED CANCER” (The Governing Council of the University of Toronto, priority 2023, published 2025).

The assay concerns HD-MB03 flank xenograft. In words: Subcutaneous flank xenograft, IVIS, H&E and Ki67 IHC. Type of assay: in vivo, mice. The method, then:
In parallel to these experiments, subcutaneous flank xenografts were engrafted into two cohorts of mice, which were treated with the vehicle or R2. […] To investigate the pharmacokinetics of BAY in vivo, its concentration in plasma and brain tissues of healthy mice was directly quantified using an LC-MS approach. BAY was detected in both brains and plasma of mice undergoing treatment, however the plasma concentrations exceeded those of the brain by approximately 10-fold (FIG. 5H-I). To determine whether treatment with BAY affects de novo pyrimidine biosynthesis in vivo, changes in pyrimidine metabolism were measured in the brain in comparison to tumor tissues from the flank (FIG. 5J-K). Although BAY treatment impacted de novo pyrimidine metabolism in vivo in both brain and tumor tissues, with a similar pattern observed in vitro (FIG. 4A), the effect size was stronger in peripheral tumor tissue in comparison to brain tissue. Such findings further reflect the limited capacity for BAY to accumulate within the brain.
To examine histological consequences of DHODH inhibition in vivo, the xenografts from the flanks of BAY- and vehicle-treated mice were surgically resected one day after administering the final dose.
FFPE tissues were sectioned onto slides and then deparaffinized prior to analysis. Samples were stained with H&E for histological examination. In parallel, sections were blocked in 5% BSA (anti-Ki67, anti-4E-BP1 Thr37/46, anti-DHODH) or 5% NGS (anti-EGR1) and stained with primary antibody at 4° C. overnight. […]
PDOX were generated by engrafting 25,000 tumor cells (both SU_MB002 and HD-MB03 cell lines), suspended in 5 μL PBS, directly into the mouse cerebrum. […] Tumor area was manually measured in H&E-stained sections of FFPE tissues using ImageJ.
For imaging via the in vivo imaging system (IVIS), mice were sedated with isoflurane gas and then administered luciferin substrate (150 mg/kg in PBS) via subcutaneous injection. After 10 minutes, bioluminescent signal (photons per second; p/s) was quantified using Living Image software.

The structures appear in SMILES notation.

Consider `CCn1c(CO)nn(-c2cc(O[C@@H](C)C(F)(F)F)c(C(=O)Nc3c(F)cccc3Cl)cc2F)c1=O` [BAY2402234], for which the “antitumoral response of flank tumors compared to orthotopic xenografts” value (HD-MB03 flank, R2) is given as “much stronger antitumoral response”. Where the note is “flank xenografts resected one day after final dose, vs vehicle”, the “tumor cell density (H&E)” value was “remarkably reduced”. Moreover, the “Ki67 expression (IHC) in surviving tumor cells” value (residual flank xenograft tissues) is on record as “reduction in Ki67 expression”.
